Assays:
[1] = system: carboxypeptidaseA (CPaseA); assay: Effect on other metalloenzymes: carboxypeptidase A; assay type: biochemical; details: at 50,000 ng/ml; bovine pancreas enzyme
Method: (§1) DHP-I is a metalloenzyme with the zinc atom. To clarify the specific inhibitors activity of the test compound on DHP-I, the effect of the test compound on other metalloenzymes containing zinc, carboxypeptidaseA (CPaseA), leucineaminopeptidase (LAP), was determined.
Activity of CPaseA from bovine pancreas (Type II-DEF, made by Sigma Chemical Co.) was measured by mean of using carbobenzoxyglycyl-L-phenylalanine (made by Peptide Institute, Inc., Osaka, Japan) as substrate. Enzymatic hydrolysis was followed by observing the fall in optical density at 224 nm.

[2] = target: T1, DHP-I (renal dipeptidase) (Sus scrofa, UniProt P22412); assay: Inhibition of DHP-I activity, porcine DHP-I; assay type: biochemical; details: glycyldehydrophenylalanine substrate
T1 construct: Fresh kidney cortex was cut into pieces and homogenized in a Waring blender; from tissue; host or cells: kidney cortex (pig), n-butanol extraction, ammonium sulfate fraction 50-75%
T1 sequence (P22412 17-409): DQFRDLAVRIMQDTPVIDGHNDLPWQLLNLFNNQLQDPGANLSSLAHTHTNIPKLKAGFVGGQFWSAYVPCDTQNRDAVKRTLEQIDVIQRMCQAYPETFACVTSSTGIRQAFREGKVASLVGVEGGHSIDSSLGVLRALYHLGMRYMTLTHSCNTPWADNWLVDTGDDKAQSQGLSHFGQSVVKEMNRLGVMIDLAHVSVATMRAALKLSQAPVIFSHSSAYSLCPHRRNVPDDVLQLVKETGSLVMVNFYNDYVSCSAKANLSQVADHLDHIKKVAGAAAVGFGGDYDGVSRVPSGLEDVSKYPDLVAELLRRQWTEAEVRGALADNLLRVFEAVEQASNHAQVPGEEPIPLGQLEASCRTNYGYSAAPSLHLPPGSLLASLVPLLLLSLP
Method: (§2) DHP-I (renal dipeptidase) were partially purified from several species of animals by B. J. Cambell (Methods in Enzymology, (1970) Vol. 19,722). Fresh kidney cortex was cut into pieces and homogenized in a Waring blender with an equal volume of 1/15M phosphate buffer (pH 8.0). The homogenate was filtrated on gauze to remove cellular debris. n-Butanol chilled to 0° C., was added to a concentration of 20% by volume with rapid stirring. The suspension was stirred with a magnetic stirrer for overnight at 4° C. to dissolve DHP-I. The resultant emulsion was then dialyzed against several changes of distilled water. To the dialyzate was added solid ammonium sulfate to 50% saturation at 0° C. The precipitate formed was collected by centrifugation at 4500 g for 1 hour and discarded. Solid ammonium sulfate was then added to the supernatant to 75% saturation, the suspension was centrifuged at 10,000 g for 1 hour. The sediment was dissolved in a small volume of distilled water and dialyzed against distilled water. […]
(§3) Activity of DHP-I was measured by mean of using the unsaturated dipeptide, glycyldehydrophenylalanine as substrate. […] Inhibitory effect of the test compound on DHP-I activity was measured. Inhibition percent, I(%), was calculated as followed, I(%)=(E-T)/Ex100, where E was DHP-I activity without test compound (Control), T was DHP-I activity with test compound.

[3] = Urinary recovery of carbapenem antibiotics combined with DHP-I inhibitor; assay type: in vivo, ICR mice; details: for dose excreted: mouse, urine, iv, 1 mg/kg, antibiotic 1 mg/kg i.v., ICR mice
Method: The effect of the test compound No.1 on urinary recovery of carbapenem antibiotics simultaneously administrated was determined. Urinary recovery percent was calculated by measuring a quantity of antibiotics excreted in urine using bioassay, when antibiotics and DHP-I inhibitor were combined and intravenously injected to ICR mice (female, 4 weeks old, 4 animals per group).

[4] = system: ICR mice; assay: Acute toxicity, single intravenous injection; assay type: in vivo; details: 1 g/kg single intravenous, female, 4 weeks old
Method: The acute toxicity of the test compound No.1 was determined to ICR mice (female, 4 weeks old) by a single intravenous injection.

[5] = system: Staphylococcus aureus; assay: Antimicrobial activity, paper disk diffusion method; assay type: cell-based; details: at 1 mg/ml
Method: (§4) Antimicrobial activity of the test compounds No.1 and No.2. was measured by paper disk diffusion method in a conventional manner.

[6] = system: Escherichia coli; assay: as above; assay type: cell-based; details: at 1 mg/ml
Method: as §4

[7] = target: T2, DHP-I (renal dipeptidase) (Oryctolagus cuniculus, UniProt P31429); assay: Inhibition of DHP-I activity, rabbit DHP-I; assay type: biochemical; details: glycyldehydrophenylalanine substrate
T2 construct: Fresh kidney cortex was cut into pieces and homogenized in a Waring blender; from tissue; host or cells: kidney cortex (rabbit), n-butanol extraction, ammonium sulfate fraction 50-75%
T2 sequence (P31429 17-410): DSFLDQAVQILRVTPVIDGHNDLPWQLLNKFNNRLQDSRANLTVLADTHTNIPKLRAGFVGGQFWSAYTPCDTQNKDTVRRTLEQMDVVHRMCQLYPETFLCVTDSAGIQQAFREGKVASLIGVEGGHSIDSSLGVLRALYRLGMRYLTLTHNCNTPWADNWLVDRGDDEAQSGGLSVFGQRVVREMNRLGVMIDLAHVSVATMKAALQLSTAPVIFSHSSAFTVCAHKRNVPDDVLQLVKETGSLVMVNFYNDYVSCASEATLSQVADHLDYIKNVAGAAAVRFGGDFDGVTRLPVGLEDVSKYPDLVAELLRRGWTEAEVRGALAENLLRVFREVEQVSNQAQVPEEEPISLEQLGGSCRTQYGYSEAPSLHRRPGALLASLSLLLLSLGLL
Method: as §2, §3

[8] = system: leucineaminopeptidase (LAP); assay: Effect on other metalloenzymes: leucineaminopeptidase; assay type: biochemical; details: at 50,000 ng/ml; porcine kidney microsomes enzyme
Method: as §1
Activity of LAP from porcine kidney microsomes (Type IV-S, made by Sigma Chemical Co.) was measured by . mean of using L-leucine-p-nitroanilide (made by Peptide Institute, Inc.) as substrate. Enzymatic hydrolysis was followed by observing the increase in optical density at 405 nm.

[9] = Solubility; assay type: physicochemical; details: disodium salt
[10] = system: Staphylococcus aureus 47; assay: Protective effect of carbapenem antibiotic combined with DHP-I inhibitor on mice infection; assay type: in vivo; details: Test compound No. 4 alone 10 mg/kg s.c., 1 hour after challenge; ICR mice
Method: The combined effect of DHP-I inhibitor of this invention with the carbapenem antibiotic, on mice infection was determined. ICR mice (female, 4 weeks old, 5 animals per group) were intraperitoneally injected with 4×10^8 Staphylococcus aureus 47 suspended in 5% mucin. Combined therapies were administrated subcutaneously 1 hour after challenge.

[11] = literature; cited from earlier work
[12] = with Test compound No. 1, 0.5 mg/kg
[13] = with Test compound No. 1, 1 mg/kg
[14] = with Test compound No. 1, 2 mg/kg

Q: Which “Inhibitory effect on CPaseA” value [1] does the source give for `CC(CC(=O)O)C(O)(C(=O)O)C(=O)NO` (centres unmarked) [Test compound No. 1] here?
A: no inhibitory effect

Q: What about the IC50 [2] of the same molecule?
A: 4.97 nM

Q: What about the “Effect on urinary recovery of the carbapenem antibiotics” value ([3]; effect of inhibitor on test compound No. 3 and 4 (1 mg/kg), in words) of the same molecule?
A: significantly increased urinary recovery

Q: What about the “Acute toxicity, toxic symptom” value [4] of the same molecule?
A: No toxic symptom was observed

Q: And the Antimicrobial activity [5]?
A: no antimicrobial activity

Q: What about the Antimicrobial activity [6] of the same molecule?
A: no antimicrobial activity

Q: What about the IC50 [7] of the same molecule?
A: 49.7 nM

Q: And the “Inhibitory effect on LAP” value [8]?
A: no inhibitory effect

Q: Which Solubility in acetone [9] does the source give for `O=C(O)CCC(O)(C(=O)O)C(=O)NO` (centres unmarked) [WS-1358B] here?
A: Insoluble

Q: What about the Solubility in chloroform [9] of the same molecule?
A: Insoluble

Q: What about the Solubility in ethanol [9] of the same molecule?
A: Sparingly Soluble

Q: What about the “Solubility in ethyl acetate” value [9] of the same molecule?
A: Insoluble

Q: What about the Solubility in hexane [9] of the same molecule?
A: Insoluble

Q: And the Solubility in methanol [9]?
A: Sparingly Soluble

Q: And the Solubility in water [9]?
A: Soluble

Q: Which results are given for `C[C@@H](O)[C@H]1C(=O)N2C(C(=O)O)=C(S[C@@H]3CN[C@H](COC(N)=O)C3)CC12` (some centres unmarked) [Test compound No. 4]?
A: dose excreted ([3]; inhibitor: None): 29.3 ± 2.8%; dose excreted [3, 12]: 51.4 ± 3.9%; dose excreted [3, 13]: 57.8 ± 1.3%; dose excreted [3, 14]: 71.9 ± 9.5%; Survived/Treated (Test mice) [10]: 0/5

Q: What does the source list for `CC(CC(=O)O)C(O)(C(=O)O)C(=O)NO` (centres unmarked) [WS-1358A, 2-hydroxy-2-(hydroxycarbamoyl)-3-methylglutaric acid]?
A: Solubility in acetone [9]: Insoluble; Solubility in chloroform [9]: Insoluble; Solubility in ethanol [9]: Sparingly Soluble; Solubility in ethyl acetate [9]: Insoluble; Solubility in hexane [9]: Insoluble; Solubility in methanol [9]: Sparingly Soluble; Solubility in water [9]: Soluble

Q: Which “Urinary recoveries of the carbapenem antibiotics (e.g. imipenem)” value [11] does the source give for `CC1(C)C[C@@H]1C(=O)N/C(=C\CCCCSC[C@H](N)C(=O)O)C(=O)O` [cilastatin] here?
A: improving urinary recoveries

Q: What does the source list for `C[C@@H](O)[C@H]1C(=O)N2C(C(=O)O)=C(SCCNC=N)CC12` (some centres unmarked) [Test compound No. 3]?
A: dose excreted ([3]; inhibitor: None): 44.1 ± 0.6%; dose excreted [3, 12]: 66.1 ± 3%; dose excreted [3, 13]: 63.8 ± 7.3%; dose excreted [3, 14]: 65.4 ± 9.5%

Q: For `O=C(O)CCC(O)(C(=O)O)C(=O)NO` (centres unmarked) [Test compound No. 2], which “Inhibitory effect on CPaseA” value [1] is on record?
A: no inhibitory effect

Q: What about the IC50 [2] of the same molecule?
A: 531 nM

Q: And the Antimicrobial activity [5]?
A: no antimicrobial activity

Q: What about the Antimicrobial activity [6] of the same molecule?
A: no antimicrobial activity

Q: And the IC50 [7]?
A: 2410 nM

Q: And the “Inhibitory effect on LAP” value [8]?
A: no inhibitory effect
